Tests used:
[1] = Volume of distribution at steady state in rat at 1 mg/kg, iv; format: ADME, organism-based; settings: in vivo, read-out: Vdss
[2] = AUC in rat at 1 mg/kg, iv; format: ADME, organism-based; settings: in vivo
[3] = Clearance in rat at 1 mg/kg, iv; format: ADME, organism-based; settings: in vivo
[4] = Cmax in rat at 1 mg/kg, iv; format: ADME, organism-based; settings: in vivo
[5] = MRT in rat at 1 mg/kg, iv; format: ADME, organism-based; settings: in vivo
[6] = Unbound fraction in rat plasma at 1 mg/kg, iv; format: ADME, organism-based
[7] = AUC in rhesus monkey at 1 mg/kg, iv; format: ADME, organism-based, Macaca mulatta; settings: in vivo
[8] = Clearance in rhesus monkey at 1 mg/kg, iv; format: ADME, organism-based, Macaca mulatta; settings: in vivo
[9] = Volume of distribution at steady state in rhesus monkey at 1 mg/kg, iv; format: ADME, organism-based, Macaca mulatta; settings: in vivo, read-out: Vdss
[10] = Cmax in rhesus monkey at 1 mg/kg, iv; format: ADME, organism-based, Macaca mulatta; settings: in vivo
[11] = MRT in rhesus monkey at 1 mg/kg, iv; format: ADME, organism-based, Macaca mulatta; settings: in vivo
[12] = Unbound fraction in rhesus monkey plasma at 1 mg/kg, iv; format: ADME, organism-based, Macaca mulatta
[13] = Inhibition of Metallo-beta-lactamase IMP-1 (unknown origin); design: species or system Bacteria
[14] = Inhibition of Metallo-beta-lactamase VIM-1 (unknown origin); design: species or system Bacteria
[15] = Inhibition of Metallo-beta-lactamase VIM-2 (unknown origin); design: species or system Bacteria
Escherichia coli [16] = assay: Antibacterial activity against NDM-1 expressing Escherichia coli CLB30016 assessed as inhibition of bacterial growth in presence of IMI by absorbance based assay; format: functional
Serratia marcescens = assay: Antibacterial activity against IMP-1 expressing Serratia marcescens CL5741 assessed as inhibition of bacterial growth in presence of IMI by absorbance based assay; format: functional
Klebsiella pneumoniae = assay: Antibacterial activity against VIM-1 expressing Klebsiella pneumoniae IHMA599644 assessed as inhibition of bacterial growth in presence of IMI by absorbance based assay; format: functional
Pseudomonas aeruginosa [17] = assay: Antibacterial activity against wildtype isogenic efflux/IMP-1 expressing Pseudomonas aeruginosa MB9798 assessed as inhibition of bacterial growth in presence of IMI by absorbance based assay; format: functional
[18] = Efflux ratio of MITC95 for antibacterial activity against wildtype isogenic efflux/IMP-1 expressing Pseudomonas aeruginosa MB9798 assessed as inhibition of bacterial growth in presence of IMI to MITC95 for antibacterial activity against mutant isogenic efflux/IMP-1 expressing Pseudomonas aeruginosa MB9799 assessed as inhibition of bacterial growth in presence of IMI; format: functional
[19] = Cmax in rat at 100 mg/kg, iv; format: ADME, organism-based; settings: in vivo
[20] = Toxicity in cardiovascular rat model assessed as increase in histamine release in plasma at 100 mg/kg, iv; format: organism-based; settings: in vivo
[21] = Toxicity in rat mast cells assessed as degranulation by measuring histamine release at 900 microM; format: cell-based; settings: mast cell
[22] = Toxicity in cardiovascular rat model assessed as decrease in blood pressure at 30 mg/kg,iv for 20 mins and measured after 20 mins of iv infusion with 100 mg/kg; format: organism-based; settings: in vivo, 40 min
[23] = Toxicity in cardiovascular rat model assessed as increase in histamine release in plasma at 30 mg/kg,iv for 20 mins and measured after 20 mins of iv infusion with 100 mg/kg; format: organism-based; settings: in vivo, 40 min
[24] = Toxicity in rhesus monkey assessed as adverse effects at 1 mg/kg, iv measured after 24 hrs; format: organism-based, Macaca mulatta; settings: in vivo
[25] = Cmax in rhesus monkey at 1 mg/kg, iv measured after 24 hrs; format: ADME, organism-based, Macaca mulatta; settings: in vivo
Staphylococcus aureus = assay: Antibacterial activity against wild type Staphylococcus aureus; format: functional, organism-based
Escherichia coli [26] = assay: Antibacterial activity against efflux mutant Escherichia coli; format: functional, organism-based
[27] = Hemolytic activity in sheep red blood cells assessed as hemolysis; format: toxicity, cell-based, Ovis aries, Erythrocyte
[28] = biological target: Metallo-beta-lactamase type 2 (Bacteria, UniProt C7C422); assay: Inhibition of Metallo-beta-lactamase NDM-1 (unknown origin)
Pseudomonas aeruginosa [29] = assay: Antibacterial activity against mutant isogenic efflux/IMP-1 expressing Pseudomonas aeruginosa MB9799 assessed as inhibition of bacterial growth in presence of IMI by absorbance based assay; format: functional
[30] = Unbound fraction in rat plasma at 4 mg/kg, iv; format: ADME, organism-based
[31] = MRT in rat at 4 mg/kg, iv; format: ADME, organism-based; settings: in vivo
[32] = Cmax in rat at 4 mg/kg, iv; format: ADME, organism-based; settings: in vivo
[33] = Volume of distribution at steady state in rat at 4 mg/kg, iv; format: ADME, organism-based; settings: in vivo, read-out: Vdss
[34] = Clearance in rat at 4 mg/kg, iv; format: ADME, organism-based; settings: in vivo
[35] = AUC in rat at 4 mg/kg, iv; format: ADME, organism-based; settings: in vivo
[36] = Toxicity in cardiovascular rat model assessed as increase in histamine release in plasma at 4 mg/kg, iv; format: organism-based; settings: in vivo
[37] = Toxicity in rat mast cells assessed as degranulation by measuring histamine release at >=100 microM; format: cell-based; settings: mast cell
[38] = Toxicity in rat assessed as adverse effect at 4 mg/kg, iv; format: organism-based; settings: in vivo

Sequence of Metallo-beta-lactamase type 2 (C7C422 whole entry): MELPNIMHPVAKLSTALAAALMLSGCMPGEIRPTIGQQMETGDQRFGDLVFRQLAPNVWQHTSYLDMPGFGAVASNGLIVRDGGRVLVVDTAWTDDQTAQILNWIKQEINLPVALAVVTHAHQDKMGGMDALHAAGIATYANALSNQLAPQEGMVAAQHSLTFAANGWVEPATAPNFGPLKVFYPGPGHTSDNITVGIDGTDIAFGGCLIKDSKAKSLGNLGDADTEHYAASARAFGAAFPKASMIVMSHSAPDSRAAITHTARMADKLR

NCCS(=O)(=O)c1ccc(-c2cccc3sc(N)nc23)c(-c2nn[nH]n2)c1S(N)(=O)=O
Vd [1]: 0.46 L/kg | AUC [2]: 1.15 µM·h | clearance [3]: 1.93 L/h/kg | Cmax [4]: 5.8 µM | MRT [5]: 13.8 min | fraction unbound [6]: 0.37 | AUC [7]: 10.2 µM·h | clearance [8]: 0.216 L/h/kg | Vd [9]: 0.39 L/kg | Cmax [10]: 18 µM | MRT [11]: 109 min | fraction unbound [12]: 0.23 | IC50 [13]: 0.23 nM | IC50 [14]: 0.31 nM | IC50 [15]: 1 nM | MITC95 (Escherichia coli [16]): 0.78 µM | MITC95 (Serratia marcescens): 1.56 µM | MITC95 (Klebsiella pneumoniae): 3.13 µM | MITC95 (Pseudomonas aeruginosa [17]): 0.78 µM | Ratio [18]: ~1 | Cmax [19]: 569 µM | Activity [20]: Non-toxic | Activity [21]: Non-toxic | Activity [22]: Toxic | Activity [23]: Non-toxic | Activity [24]: Non-toxic | Cmax [25]: 18 µM | IC50 (Staphylococcus aureus): > 200000 nM | IC50 (Escherichia coli [26]): > 200000 nM | IC50 [27]: > 200000 nM

Cc1ccc(-c2ccc(S(=O)(=O)C3CNC3)c(S(N)(=O)=O)c2-c2nn[nH]n2)c2nc(N)[nH]c12
IC50 [28]: 0.04 nM | IC50 [13]: 0.47 nM | IC50 [14]: 0.24 nM | MITC95 (Escherichia coli [16]): 1.56 µM | MITC95 (Serratia marcescens): 0.78 µM | MITC95 (Klebsiella pneumoniae): 1.56 µM | MITC95 (Pseudomonas aeruginosa [17]): 0.78 µM | MITC95 (Pseudomonas aeruginosa [29]): 0.78 µM | Ratio [18]: 1

NS(=O)(=O)c1c([S+]([O-])C2CCNCC2)ccc(-c2ccc(C3CCNCC3)cc2)c1-c1nnn[nH]1 (stereo not given)
IC50 [13]: 5.9 nM | IC50 [14]: 1.18 nM | IC50 [15]: 1090 nM | MITC95 (Escherichia coli [16]): 3.13 µM | MITC95 (Serratia marcescens): 6.25 µM | MITC95 (Klebsiella pneumoniae): 6.25 µM | MITC95 (Pseudomonas aeruginosa [17]): 3.1 µM | MITC95 (Pseudomonas aeruginosa [29]): 1.56 µM | Ratio [18]: 2

NS(=O)(=O)c1c(S(=O)(=O)C2CCNCC2)ccc(-c2ccc(C3CCNCC3)cc2)c1-c1nnn[nH]1
Vd [1]: 0.18 L/kg | AUC [2]: 8.4 µM·h | clearance [3]: 0.228 L/h/kg | Cmax [4]: 15.8 µM | MRT [5]: 46.8 min | fraction unbound [6]: 0.66 | IC50 [13]: 0.52 nM | IC50 [14]: 0.31 nM | IC50 [15]: 4.1 nM | MITC95 (Escherichia coli [16]): 1.56 µM | MITC95 (Serratia marcescens): 3.13 µM | MITC95 (Klebsiella pneumoniae): 3.13 µM | MITC95 (Pseudomonas aeruginosa [17]): 0.78 µM | MITC95 (Pseudomonas aeruginosa [29]): 0.78 µM | Ratio [18]: 1

CS(=O)(=O)c1ccc(-c2ccc(C3CCNCC3)cc2)c(-c2nnn[nH]2)c1S(N)(=O)=O
IC50 [13]: 0.1 nM | IC50 [14]: 0.13 nM | IC50 [15]: 2.6 nM | MITC95 (Escherichia coli [16]): 3.13 µM | MITC95 (Serratia marcescens): 3.13 µM | MITC95 (Klebsiella pneumoniae): 3.13 µM | MITC95 (Pseudomonas aeruginosa [17]): 6.25 µM | MITC95 (Pseudomonas aeruginosa [29]): 0.78 µM | Ratio [18]: 8

NS(=O)(=O)c1c(S(=O)(=O)C2CNC2)ccc(-c2ccc(C3CCNCC3)cc2)c1-c1nn[nH]n1
fraction unbound [30]: 0.55 | MRT [31]: 40.2 min | Cmax [32]: 35.7 µM | Vd [33]: 0.34 L/kg | clearance [34]: 0.51 L/h/kg | AUC [35]: 15.6 µM·h | IC50 [13]: 0.21 nM | IC50 [14]: 0.2 nM | IC50 [15]: 2.8 nM | MITC95 (Escherichia coli [16]): 0.78 µM | MITC95 (Serratia marcescens): 1.56 µM | MITC95 (Klebsiella pneumoniae): 1.56 µM | MITC95 (Pseudomonas aeruginosa [17]): 0.78 µM | MITC95 (Pseudomonas aeruginosa [29]): 0.78 µM | Ratio [18]: 1 | Activity [36]: Non-toxic | Activity [37]: Toxic | Activity [38]: Non-toxic

Nc1nc2c(-c3ccc(S(=O)(=O)C4CCNCC4)c(S(N)(=O)=O)c3-c3nn[nH]n3)cccc2s1
IC50 [28]: 0.12 nM | IC50 [13]: 0.46 nM | IC50 [14]: 0.26 nM | IC50 [15]: 0.4 nM | MITC95 (Escherichia coli [16]): 3.13 µM | MITC95 (Serratia marcescens): 3.13 µM | MITC95 (Klebsiella pneumoniae): 6.25 µM | MITC95 (Pseudomonas aeruginosa [17]): 1.56 µM | MITC95 (Pseudomonas aeruginosa [29]): 1.56 µM | Ratio [18]: 1
